Measurements from patent US20080207572A1, “Use of Dual C-Kit/Fgfr3 Inhibitors for Treating Multiple Myeloma” (AB Science, priority 2005, published 2008).

Key:
Type in all cases: cell-based
[1] = tested on: t(4; 14) FGFR3+ human plasma cell line LP1; assay: FGF-enhanced proliferation (3H-Thymidine uptake); settings: in the presence of FGF; FIG. 2
Text: In the presence of FGF, the proliferation of the t(4; 14) FGFR3+ human plasma cell line is enhanced, as measured by 3H-Thymidine uptake.

[2] = tested on: cell line (Ba/F3-derived) expressing JMΔ27; assay: Apoptosis induction in Ba/F3-derived cell line
Protocol: (§1) In this experiment, after 48 hours, 0.1 μM AB1010 induced apoptosis of approximately 50% versus control cells in which 10% of cells were apoptotic. In addition, a separate cell line (Ba/F3-derived) expressing JMΔ27 was tested and apoptosis was induced to a level of approximately 85%.

[3] = tested on: human mast cell line expressing the JMΔ27 mutated c-kit; assay: Apoptosis induction in mast cell line; settings: 0.1 μM, after 48 hours; control cells 10% apoptotic
Protocol: as §1

Structure (SMILES): Cc1ccc(NC(=O)c2ccc(CN3CCN(C)CC3)cc2)cc1Nc1nc(-c2cccnc2)cs1 [AB1010]
- inhibition of FGF-enhanced proliferation [1]: inhibit the FGF-enhanced proliferation
- apoptosis induced [2]: approximately 85%
- apoptosis induced [3]: approximately 50%
